Data published in patent publication US12053441B2, “Formulations for improving the delivery of hydrophobic agents” (THE ROYAL INSTITUTION FOR THE ADVANCEMENT OF LEARNING / …, priority 2018, dated 2024).
≈ marks a conversion by molar mass, not a printed value. Starred links: 1 amine or outer side, 2 acyl side, 3 side chain; linkers in the order of their positions; H or OH if unused. Positions of bridges follow the written chain, without caps; N, C: chain ends. Non-standard residues stand in square brackets, D forms with d. Residues, ends and D or L forms follow the SMILES beside them. *: point of attachment. hTyr(3S-OH,4S-OH,3'-OSO3H) = N[C@H](C(=O)O)[C@H](O)[C@@H](O)c1ccc(O)c(OS(=O)(=O)O)c1; pTerphenylCO(4''-OnC5H11) = CCCCCOc1ccc(-c2ccc(-c3ccc(C(=O)*)cc3)cc2)cc1; Orn(4R-OH,5R-OH) = O=C([C@H](C[C@@H](O)[C@@H](O)N[*:3])N[*:1])[*:2]; hTyr(3S-OH,4S-OH) = N[C@H](C(=O)O)[C@H](O)[C@@H](O)c1ccc(O)cc1; Pro(3S-OH,4S-Me) = C[C@H]1CN[C@H](C(=O)O)[C@H]1O; X2 = CCCCCOc1ccc(-c2cc(-c3ccc(C(=O)*)cc3)no2)cc1; Gln(3R-OH) = NC(=O)C[C@@H](O)[C@H](N)C(=O)O; Hyp = O=C(O)[C@@H]1C[C@@H](O)CN1

Tests used:
wildtype MEFs = assay: Cellular UQ10 levels (quinone quantification by HPLC); format: cell-based, mouse; settings: for cellular uptake of exogenous UQ10: in combination with UQ10, vs UQ10 alone
Experimental: (§1) Quantification of quinones. Quinone content was detected and quantified by HPLC as previously described. […] After centrifugation for 5 min at 8,000×g, the hexane layer was collected and evaporated in a vacuum centrifuge. The quinone residue was then dissolved in ethanol and stored at −20° C. until HPLC analysis. The HPLC analysis was performed on a reverse phase C18 column (25.0×0.46 cm, 5 μm, Highchrom) using UV detection at 275 nm (Beckman System Gold). The mobile phase was methanol/ethanol (70:30 v/v) and isocratic elution was used at a flow rate of 1.8 ml/min.

cells = assay: Cellular UQ measurements after treatment with micellar UQ10 solutions (FIG. 22); format: cell-based; settings: UQ10 solution prepared with the surfactant, 6 μM UQ10, 1-day
Excerpt: UQ levels are expressed as ng per mg of protein (mean±SEM). Each bar represents the average of 2 to 3 independent measurements. […] ND: not detected. #p<0.0001 (vs. untreated controls; two-way ANOVA followed by Dunnett's multiple comparison test).

[1] = Drop collapse assay (surfactant activity); format: physicochemical
Experimental: Drop collapse assay is a simple detection method of surface active agents. It relies on the capacity of surfactants to destabilize the liquid droplets on an oily surface. The drop-collapsing ability of McC1 along with other known potent surfactants was characterized. For each, 40 ul of compound solution in water was pipetted onto a hydrophobic Parafilm surface and the diameter of the drops was measured 1 min later using a ruler.

[2] = Experimental: Solubilization studies. In order to link the surfactant properties of McC1 and its stimulating impact on UQ10 uptake, the solubilization characteristics of McC1 on UQ10 have been determined. First, solubilization test was performed by overnight shaking of a mixture of UQ10 and McC1 in water.
Additional solubilization tests were performed using sonication. Excess amount of UQ10 was mixed with McC1 by sonication for 2 min in water.
Like caspofungin/McC1, surfactin is a cyclic lipopeptide. It is produced from various strains of Bacillus subtilis. Structurally it consists of a peptide chain formed by seven amino acids linked to a β-hydroxyl fatty acid via a lactone bond. It is known for its exceptional surfactant power. […] Then, solubilization test was performed by overnight shaking of a mixture of UQ10 and surfactin in water. The mixture were subjected to brief centrifugation to separate undissolved UQ10 before absorbance of the resultant clear supernatant at 275 nm was measured spectrophotometrically.
Several other surfactants were tested for their ability to solubilize UQ. Briefly, excess amount of UQ10 was mixed with water solution of the tested surfactants using sonication. The resultant suspensions were then filtered through a 0.45 μm syringe filter to remove undissolved UQ10.

Pdss2/Mclk1 DKO cells [3] = assay: Viability in glucose-free galactose-containing medium (resazurin reduction assay); format: cell-based, mouse
Experimental: Tissue culture and viability assays. […] Cell viability was determined by resazurin (Sigma Cat No R7017) reduction assay or crystal violet staining following standard procedures.
(§2) The resazurin cell viability assay. Briefly, resazurin was added directly to plates at 1/10 the volume of glucose culture medium. Viable cells with active metabolism can reduce resazurin into resorufin which causes a colour change from blue to pink. After a 2 hr incubation, plates were read on a plate reader (Tecan) to record absorbance at 570 nm and 600 nm. The cell viability was scored as a percentage relative to the signal from untreated glucose-grown wells. Consequently, each screened compound may be described by its effect (no, partial or full rescue) on survival of the KO cells in galactose medium.
The screen also uses cells lacking UQ biosynthesis (e.g., DKO cells) and its protocol is essentially the same as the galactose-only screen except that in step 2, a minimal amount of UQ10 is added into the galactose screening media at a concentration at which the added UQ10 is insufficient by itself to support survival.

Pdss2/Mclk1 DKO cells [4] = assay: Oxygen consumption rate (OCR) by Seahorse XF analyzer; format: cell-based, mouse; settings: co-treatment with UQ10
Experimental: Measurement of oxygen consumption by Seaborse XF analyzer. Cells were seeded in XF v7 24-well plates (Seahorse Bioscience) at ˜40,000 cells/well for 24 hr. Prior to the measurements, cell medium was replaced with Seahorse XF base medium supplemented with 5.5 mM glucose (Sigma Cat No G8769), 2 mM Glutamax (Thermo Fisher Cat No 35050061) and 1 mM sodium pyruvate and allowed to equilibrate for 1 hour at 37° C. Oxygen consumption was measured first under baseline condition, followed by subsequent addition of 1 μg/ml oligomycin (Sigma Cat No 04876), 0.8 μM FCCP (Sigma Cat No C2920) and a combination of 1 μM rotenone (Sigma Cat No R8875) and 5 μM antimycin A (Sigma Cat No A8674) to assess the basal and maximal mitochondrial respiration rates. Four baseline measurements were recorded before the consecutive addition of the above-mentioned compounds, and three response measurements were taken after the addition of each compound. Results were finally normalized to protein content determined using the Bradford reagent (Bio-Rad). For experiments that involved culturing cells in the presence of lipoprotein-deficient serum (LPDS), cells were grown in culture medium supplemented with LPDS (Sigma S5394) for 1 week before OCR was measured using a Seahorse XF-24 extracellular flux analyzer as described above.

Pdss2/Mclk1 DKO MEFs = assay: Cellular UQ10 levels (quinone quantification by HPLC); format: cell-based, mouse; settings: in combination with UQ10, vs UQ10 alone
Experimental: as §1

[5] = system: mitochondria of wild-type MEFs; assay: UQ levels in mitochondrial extracts; format: cell-based, mouse
Excerpt: FIGS. 7A to 7D present exemplary data showing that McC1 is capable of increasing the uptake of exogenous UQ into cells and mitochondria. (A) Bar chart showing change of UQ10 levels (as measured in ng/μg of protein) in Pdss2/Mclk1 DKO MEFs after treatment with UQ10, McC1 alone, or UQ10 and McC1 in combination. **p<0.01, ***p<0.001 (one-way ANOVA). (B) Bar charts presenting exemplary data showing changes of UQ levels in wildtype MEFs after treatment with UQ10, McC1 alone, or both in combination. Results are shown as cellular UQ10 levels (as provided in ng/μg of protein, left panel) or UQ9 levels (as provided in ng/μg of protein, right panel) in untreated cells, after treatment with 12.5 μM of McC1, after treatment with 2.5 μM of UQ10, or after co-treatment UQ10 and McC1. Results are mean±SEM (n=3). ****p<0.0001 (one-way ANOVA). (C) Bar chart presenting exemplary data showing changes of UQ10 and UQ9 levels in mitochondrial extracts from wildtype MEFs after treatment with UQ10 alone, or in combination with McC1. Results are shown as UQ9 and UQ10 levels in ng/μg of protein. Results are mean±SEM (n=3). ****p<0.0001 (student's t-test). (D) Bar chart presenting exemplary data showing changes of UQ10 level in mitochondrial extracts from Pdss2/Mclk1 DKO MEFs after treatment with UQ10 alone, or in combination with McC1. Results are shown as UQ10 levels (as provided in ng/μg of protein) in untreated DKO cells, after treatment with 2.5 μM of UQ10, or after co-treatment 2.5 μM of UQ10 and 12.5 μM of McC1. ND: Not Detectable. Results are mean±SEM (n=3). ****p<0.0001 (one-way ANOVA).
as §1

Mclk1 KO cells = assay: Viability in glucose-free galactose-containing medium (resazurin reduction assay); format: cell-based, mouse; settings: sufficiently high dose (FIG. 3A)
Experimental: Tissue culture and viability assays. […] To score growth and viability in galactose, cells were first grown in high glucose DMEM medium to confluency and then switched to glucose-free DMEM media (Thermo Fisher Cat No 26400036) supplemented with 10 mM galactose (Sigma Cat No G5388), 1 mM sodium pyruvate (Thermo Fisher Cat No 11360070), 10% dialyzed FBS (Thermo Fisher Cat No 26400036) and 1% antibiotic-antimycotic solution. Cell viability was determined by resazurin (Sigma Cat No R7017) reduction assay or crystal violet staining following standard procedures.
The screen uses cells lacking UQ (e.g., Mclk1 KO cells) and consists of three key steps: • 1) Day 0: preparation of Mclk1 KO cells in 96-well plates in standard (glucose-containing) culture medium. • 2) Day 1: changing to glucose-free galactose-containing medium and adding compounds to be screened at a concentration of approximately 10 μM. • 3) Day 4 to 6: following 3 to 5 days of incubation with the compound to be screened, media were removed and cell viability was assayed by resazurin reduction assay.
as §2

[6] = cited from earlier work

## CCCCCCCC/C=C\CCCCCCCC(=O)ON1C(=O)CC(S(=O)(=O)O)C1=O (centres unmarked) [SSO, sulfo-N-succinimidyl oleate]
Wildtype MEFs; cells treated with UQ10 or UQ10 combined with McC1 (FIG. 8)
  effect on cellular uptake of UQ10: inhibits cellular uptake of UQ10

## CCCCCCCCCCCCCC[N+](C)(C)C.[Br-] [TTAB, Tetradecyl trimethyl ammonium bromide]
cells
  cellular uptake of UQ10 compared to adding UQ10 alone: increased cellular uptake of UQ10

## Benzalkonium chloride [BAC]
cells
  cellular uptake of UQ10 compared to adding UQ10 alone: increased cellular uptake of UQ10

## CCCCCOc1ccc(-c2cc(-c3ccc(C(=O)N[C@H]4C[C@@H](O)[C@@H](O)NC(=O)[C@@H]5[C@@H](O)[C@@H](C)CN5C(=O)[C@H]([C@H](O)CC(N)=O)NC(=O)[C@H]([C@H](O)[C@@H](O)c5ccc(O)c(OS(=O)(=O)O)c5)NC(=O)[C@@H]5C[C@@H](O)CN5C(=O)[C@H]([C@@H](C)O)NC4=O)cc3)no2)cc1 [MFG, Micafungin] (X2-[Orn(4R-OH,5R-OH)]T[Hyp][hTyr(3S-OH,4S-OH,3'-OSO3H)][Gln(3R-OH)][Pro(3S-OH,4S-Me)]; lactam 1-C)
Wildtype MEFs
  cellular uptake of exogenous UQ10: did not further increase the level of UQ10
[1]
  surfactant (drop collapse) activity: no drop collapse activity

## CC(C)CCCCCCCCC[C@@H]1CC(=O)N[C@@H](CCC(=O)O)C(=O)N[C@@H](CC(C)C)C(=O)N[C@H](CC(C)C)C(=O)N[C@@H](C(C)C)C(=O)N[C@@H](CC(=O)O)C(=O)N[C@H](CC(C)C)C(=O)N[C@@H](CC(C)C)C(=O)O1 [surfactin] (HELM PEPTIDE1{E.L.[dL].V.D.[dL].L}|CHEM1{[CC(C)CCCCCCCCC[C@H](CC(=O)[*:1])O[*:2]]}$PEPTIDE1,CHEM1,1:R1-1:R1|PEPTIDE1,CHEM1,7:R2-1:R2$$$V2.0)
[2]
  solubilization power for UQ compared to McC1: lower solubilization power than McC1
  water solubility of UQ10 in the presence of the compound: increased
Pdss2/Mclk1 DKO cells [3]; 10 μM surfactin with a small amount of UQ10 (FIG. 17D)
  viability rescue of DKO cells: full viability rescue
Pdss2/Mclk1 DKO cells [3]; compound by itself, no UQ10 added
  survival of DKO cells in galactose medium: no effect
Pdss2/Mclk1 DKO cells [4]
  mitochondrial respiration (OCR) compared with UQ10 treatment alone: Higher respiration rates
Pdss2/Mclk1 DKO MEFs
  cellular uptake of exogenous UQ10: improves UQ10 uptake into cells
[5]; FIG. 17C right panel
  UQ uptake into mitochondria compared to McC1: less stimulating action on UQ uptake into mitochondria
[5]; in combination with UQ10, vs UQ10 alone
  uptake of exogenous UQ10 into mitochondria: augmented uptake of UQ into mitochondria
[1]
  surfactant (drop collapse) activity: potent surfactant activity

## CCCCCOc1ccc(-c2ccc(-c3ccc(C(=O)N[C@H]4C[C@@H](O)[C@@H](O)NC(=O)[C@@H]5[C@@H](O)[C@@H](C)CN5C(=O)[C@H]([C@@H](C)O)NC(=O)[C@H]([C@H](O)[C@@H](O)c5ccc(O)cc5)NC(=O)[C@@H]5C[C@@H](O)CN5C(=O)[C@H]([C@@H](C)O)NC4=O)cc3)cc2)cc1 [AFG, Anidulafungin] ({pTerphenylCO(4''-OnC5H11)}-[Orn(4R-OH,5R-OH)]T[Hyp][hTyr(3S-OH,4S-OH)]T[Pro(3S-OH,4S-Me)]; lactam 1-C)
Wildtype MEFs
  cellular uptake of exogenous UQ10: did not further increase the level of UQ10
[1]
  surfactant (drop collapse) activity: no drop collapse activity

## O=C(O)c1ccc(O)cc1O [2,4-DHB, 2,4-dihydroxybenzoic acid]
Mclk1 KO cells
  survival of Mclk1 KO cells in galactose-containing media: allows them to survive in galactose-containing media

## COC1=C(OC)C(=O)C(C/C=C(\C)CC/C=C(\C)CC/C=C(\C)CC/C=C(\C)CC/C=C(\C)CC/C=C(\C)CC/C=C(\C)CC/C=C(\C)CCC=C(C)C)=C(C)C1=O [UQ9, ubiquinone-9]
Pdss2/Mclk1 DKO cells [3]; if provided at a sufficient amount
  rescue from galactose-induced cell death by UQ supplementation: sufficient to rescue them from galactose-induced cell death

## lipopeptide detergent-12 [LPD-12]
[2]
  solubilization of UQ10 in water by the compound: increases the water solubilization of UQ10

## CC(C)(C)NC(=O)[C@H]1CC[C@H]2[C@@H]3CC[C@H]4NC(=O)C=C[C@]4(C)[C@H]3CC[C@]12C [finasteride]
[6]
  solubility in water: 0.0117 mg/mL (≈ 31.4 µM)

## COc1ccc2[nH]c([S+]([O-])Cc3ncc(C)c(OC)c3C)nc2c1 (centres unmarked) [omeprazole]
[6]
  solubility in water: 0.359 mg/mL (≈ 1040 µM)

## Saponins
[2]
  solubilization of UQ10 in water by the compound: improve the water solubility of UQ10

## CCCSc1ccc2nc(NC(=O)OC)[nH]c2c1 [albendazole]
[6]
  solubility in water: insoluble
